Assay results reported in patent US20160287672A1, “METHOD OF TREATING CHRONIC HEART FAILURE BY ADMINISTERING RELAXIN” (priority 2008, published 2016).

Experiments:
[1] = system: patients with chronic and stable compensated congestive HF; experiment: Open-label pilot study of IV recombinant relaxin over 24 hours in chronic heart failure patients; format: in vivo, human; settings: for SBP Change from baseline / SVR Change from baseline / CI Change from baseline / CO Change from baseline / DBP Change from baseline / HR Change from baseline / PAP Change from baseline / PCWP Change from baseline / PVR Change from baseline / RAP Change from baseline: mean ± SD
Experimental: Overview. In this open-label study 16 patients with chronic and stable compensated congestive HF were enrolled in three dose-ascending cohorts of recombinant intravenous relaxin (10 to 960 mcg/kg/day) over 24 hours. Relaxin produced increases in cardiac index and stroke volume, and a decrease in pulmonary wedge pressure and NT-pro BNP. It improved markers of renal function, with a small rebound at the highest dose during post-infusion. […] A maximally tolerated dose was determined.
Design of Study. In this single-center, open-label study, 16 patients who fulfilled inclusion and but not exclusion criteria for chronic and stable compensated congestive HF were sequentially allocated to three ascending cohorts of intravenous (IV) relaxin. Main inclusion criteria included: Age >18 years; NYHA CHF Class II-III without restriction on etiology; left ventricular ejection fraction <35% within 6 months of enrollment; receiving established oral HF therapy expected to remain unchanged during the study period. Main exclusion criteria included: Wedge pressure <16 mmH or CI >2.5 L/min/m2; acute coronary syndrome (within 4 weeks) or recent myocardial infarction or cardiac surgery (within 6 months); AHF requiring intravenous therapy at baseline; systolic blood pressure <85 mmHg; uncorrected valvular heart disease, except for relative mitral and/or tricuspid valve insufficiency; obstructive or restrictive cardiomyopathy; recent episode of ventricular tachycardia or fibrillation (within 4 weeks); recent stroke (within 3 months); creatinine >2.0 mg/dl or serum transaminases and/or total bilirubin >2.5 times the upper limit of normal at screening visit; history of endometriosis.
The study drug was relaxin (produced by recombinant technology). Recombinant relaxin is identical to the native human hormone H2 relaxin. The dose escalation was as follows: Group A included sequential treatment for 8 hours each with dosages equivalent to 10, 30, and 100 mcg/kg/day. Group B included sequential treatment for 8 hours each with dosages equivalent to 240, 480, and 960 mcg/kg/day. Group C received 24 hours of treatment with 960 mcg/kg/day. Escalation from Group A to Group B was done after examining safety and tolerability of the doses used in Group A. Escalation from Group B to C occurred after the safety and tolerability of the highest dose in Group B (960 mcg/kg/day) was determined.
Patients were monitored in the intensive care unit for the infusion and post-infusion periods (24 hours either). Hemodynamic measurements, including CI, SVR, PCWP, SBP, RAP, and PVR, were serially performed using Swan-Ganz and arterial catheters. Likewise, clinical and laboratory monitoring was carried out serially throughout infusion and post-infusion and on Day 9 after beginning of infusion. An additional 30-day evaluation for serious adverse events was performed by phone. Endpoints included hemodynamic and neurohumoral (NT-pro BNP levels) changes from baseline, as well as monitoring of vital signs, electrocardiogram, serum chemistry, and hematology parameters throughout the study. For statistical analysis, an error probability of P<0.05 was regarded as significant. Baseline values were compared using the Kruskal-Wallis ANOVA on ranks followed by Dunn's test. Differences over time within the single groups (hemodynamics, renal parameter, and peptide levels) were analyzed with a Friedman Repeated Measures Analysis of Variance on Ranks followed by Dunn's test for comparison against the baseline.

[2] = system: systemic sclerosis patients; experiment: Clinical trials of relaxin by continuous subcutaneous infusion for six months in systemic sclerosis patients; format: in vivo, human; settings: continuous SQ infusion for six months
Description: Clinical trials with relaxin have also been conducted on systemic sclerosis patients. 257 human subjects who suffer from systemic sclerosis, a serious fibrotic disease, have been treated with relaxin by continuous and subcutaneous (SQ) infusion for six months. […] These findings support the hypothesis that relaxin administration was associated with balanced systemic and renal vasodilation.

[3] = system: hypertensive and normotensive rats; settings: cited from earlier work
[4] = Group C, 960 mcg/kg/d IV over 24 hours
[5] = Group C, 960 mcg/kg/d IV, 24 hr

Substance: relaxin: Study drug produced by recombinant technology, identical to the native human hormone H2 relaxin; peptide hormone of A and B chains
- SBP Change from baseline ([1]; Group B, 480 mcg/kg/d IV, 8 hr): 2.2 ± 5.6 mmHg
- SVR Change from baseline ([1]; Group B, 480 mcg/kg/d IV, 8 hr): −12 ± 219 dynes * sec/cm5
- CI Change from baseline ([1]; Group B, 960 mcg/kg/d IV, 8 hr): 0.25 ± 0.3 L/min/m2
- CO Change from baseline ([1]; Group B, 960 mcg/kg/d IV, 8 hr): 0.48 ± 0.7 L/min
- DBP Change from baseline ([1]; Group B, 960 mcg/kg/d IV, 8 hr): −0.3 ± 6.8 mmHg
- HR Change from baseline ([1]; Group B, 960 mcg/kg/d IV, 8 hr): 1.8 ± 3.4 beats/min
- PAP Change from baseline ([1]; Group B, 960 mcg/kg/d IV, 8 hr): 0.3 ± 3.7 mmHg
- PCWP Change from baseline ([1]; Group B, 960 mcg/kg/d IV, 8 hr): −0.17 ± 2.7 mmHg
- PVR Change from baseline ([1]; Group B, 960 mcg/kg/d IV, 8 hr): 3.3 ± 27.5 dynes * sec/cm5
- RAP Change from baseline ([1]; Group B, 960 mcg/kg/d IV, 8 hr): 0.8 ± 1.2 mmHg
- SBP Change from baseline ([1]; Group B, 960 mcg/kg/d IV, 8 hr): −3.0 ± 5.1 mmHg
- SVR Change from baseline ([1]; Group B, 960 mcg/kg/d IV, 8 hr): −102 ± 248 dynes * sec/cm5
- absolute decreases in PCWP [1, 4]: approximately 4 mm Hg
- absolute increases of CI [1, 4]: up to 0.81 /min/m2
- CI Change from baseline ([1]; Group C, 960 mcg/kg/d IV, 8 hr): 0.43 ± 0.3 L/min/m2
- CO Change from baseline ([1]; Group C, 960 mcg/kg/d IV, 8 hr): 0.85 ± 0.5 L/min
- DBP Change from baseline ([1]; Group C, 960 mcg/kg/d IV, 8 hr): −4.8 ± 5.4 mmHg
- HR Change from baseline ([1]; Group C, 960 mcg/kg/d IV, 8 hr): 2.5 ± 4.3 beats/min
- PAP Change from baseline ([1]; Group C, 960 mcg/kg/d IV, 8 hr): −3.2 ± 3.1 mmHg
- PCWP Change from baseline ([1]; Group C, 960 mcg/kg/d IV, 8 hr): −2.5 ± 3.5 mmHg
- PVR Change from baseline ([1]; Group C, 960 mcg/kg/d IV, 8 hr): −58.5 ± 69.4 dynes * sec/cm5
- RAP Change from baseline ([1]; Group C, 960 mcg/kg/d IV, 8 hr): −1.2 ± 2.9 mmHg
- SBP Change from baseline ([1]; Group C, 960 mcg/kg/d IV, 8 hr): −1.3 ± 4.7 mmHg
- SVR Change from baseline ([1]; Group C, 960 mcg/kg/d IV, 8 hr): −255 ± 188 dynes * sec/cm5
- CI Change from baseline [1, 5]: 0.67 ± 0.15 L/min/m2
- CO Change from baseline [1, 5]: 1.25 ± 0.03 L/min
- DBP Change from baseline [1, 5]: −6.5 ± 7.5 mmHg
- HR Change from baseline [1, 5]: 0.67 ± 3.6 beats/min
- PAP Change from baseline [1, 5]: −5.0 ± 3.4 mmHg
- PCWP Change from baseline [1, 5]: −3.5 ± 3.0 mmHg
- PVR Change from baseline [1, 5]: −82.5 ± 55.5 dynes * sec/cm5
- RAP Change from baseline [1, 5]: −1.5 ± 2.7 mmHg
- SBP Change from baseline [1, 5]: −7.3 ± 9.5 mmHg
- SVR Change from baseline [1, 5]: −395 ± 217 dynes * sec/cm5
- drop of PVR ([1]; Group C, 960 mcg/kg/day IV): ~30%
- time course of NT-pro BNP ([1]; Groups A and C): significant declines
- creatinine and BUN post-infusion ([1]; after doses equivalent to 960 mcg/kg/day IV, spontaneously resolved by Day 30): increase on Day 9
- tolerability ([1]; all doses, 10-960 mcg/kg/day IV): well tolerated
- infusion-related adverse events ([1]; all groups): no infusion-related clinically significant adverse events
- symptomatic hypotension ([1]; all groups): no symptomatic hypotension was observed
- heart rate ([1]; all groups, 10-960 mcg/kg/d IV): did not change in any group
- creatinine values during infusion ([1]; all groups, significant in groups A and C): decreased
- right atrial pressure ([1]; all treatment groups): None of the treatment groups showed a significant decrease
- alterations of SBP ([1]; in general, all groups): significant alterations of SBP (FIG. 8) were not observed
- vital signs, ECG, serum chemistry, and hematology parameters ([1]; throughout the study): did not evoke any abnormalities
- maximally tolerated dose (MTD) of IV relaxin ([1]; without physician supervision, chronic HF patients): 240 to 480 µg/kg/day
- blood pressure [2]: stable decreases in blood pressure
- predicted creatinine clearance [2]: statistically significant increase
- serious hypotensive events [2]: did not experience any serious hypotensive events
- CI [3]: increase in CI
- SVR [3]: decrease in SVR
- mean arterial pressure [3]: without affecting mean arterial pressure
